# Counter-ions that a name gives are not always drawn. Like-named read-outs stand apart in the source and are kept apart here.
# Test system: BALB/3T3 clone A31 cells
# Test: cells
# Assay type: cell-based
# Details: for IC50: Mus musculus, light or radiation study, BALB/3T3 clone A31 cells, neutral red
# Method: To evaluate the phototoxicity of (PEG)-BHD1028, the potential phototoxicity of (PEG)-BHD1028 was measured in the BALB/3T3 clone A31 cells after UV exposure. The test substance and the positive control group (chlorpromazine hydrochloride; CPZ) were dissolved in a Hank's Balanced Salt Solution (HBSS) and then diluted with a Hank's Balanced Salt Solution (HBSS). The cells were trypsinized and counted. Thereafter, 1×10^4 cells per well were seeded in a 96-well plate and cultured for approximately 24 hours before treating the test samples. One hour after the sample treatment, the plate was irradiated with a UV irradiation system (UVA, 365 nm). After UV irradiation, the plate was incubated for 24 hours. The cell viability of the cultured cells was confirmed by measuring the absorbance at 540 nm using the neutral red staining method.
compound,measurement,setting,value
"CN(C)CCCN1c2ccccc2Sc2ccc(Cl)cc21 [CPZ, chlorpromazine hydrochloride, reference compound]",phototoxicity classification by PIF and MPE,,positive results
same,IC50,"UVA 365 nm irradiation, read-out: IC50 UV (+Irr)",1.26 µg/mL
same,IC50,"without UV irradiation, read-out: IC50 UV (−Irr)",37.5 µg/mL
same,MPE (mean photo effect),"mouse, 24 h",0.489
same,PIF (photo irradiation factor),"mouse, 24 h",29.668

# From US20240408167A1, “COMPOSITION FOR TREATING OCULAR DISEASES CONTAINING PEPTIDE” (Encuragen Inc., priority 2023, published 2024)
